Measurements reported in ChEMBL document CHEMBL1201862, “PubChem BioAssay data set” (2004).
The source made the active and inactive calls.

Experiments:
[1] = biological target: T1, Heat shock factor protein 1 (Mus musculus, UniProt P38532); experiment: enhancement of HSF1-driven luciferase signal – cell-based, NIH3T3, luminescence, dose retest, confirmation (AID 435004); assay type: functional;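 further: stress induced by proteasome inhibitor MG132 added 30 min after compound; luciferase reporter driven by HSF1 response element in NIH3T3 cells; actives raise luminescence as potentiators of the MG132 stress response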
T1 sequence (P38532 whole entry): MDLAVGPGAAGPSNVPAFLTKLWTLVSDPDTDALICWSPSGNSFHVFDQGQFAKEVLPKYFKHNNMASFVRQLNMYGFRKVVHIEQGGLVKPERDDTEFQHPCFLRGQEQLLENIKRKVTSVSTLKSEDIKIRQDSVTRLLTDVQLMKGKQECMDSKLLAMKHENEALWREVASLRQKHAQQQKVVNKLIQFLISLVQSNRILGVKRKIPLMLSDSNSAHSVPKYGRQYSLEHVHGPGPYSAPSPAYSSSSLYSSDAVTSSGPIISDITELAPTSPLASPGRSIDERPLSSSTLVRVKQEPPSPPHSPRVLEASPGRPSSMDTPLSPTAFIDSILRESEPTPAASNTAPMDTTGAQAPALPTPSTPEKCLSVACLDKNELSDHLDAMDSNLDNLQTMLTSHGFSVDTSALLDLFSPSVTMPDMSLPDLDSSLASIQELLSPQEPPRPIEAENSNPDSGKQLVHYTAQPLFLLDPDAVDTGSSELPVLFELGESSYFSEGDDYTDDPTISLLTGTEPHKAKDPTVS

Protein RecA = biological target: T2, Protein RecA (Mycobacterium tuberculosis, UniProt P9WHJ3); experiment: Fluorescence Cell-Free Homogeneous Dose Retest to Identify Inhibitors of RecA-Intein Splicing Activity. [Related pubchem assays (depositor defined):AID2097, AID2223, AID489010, AID492950]; assay type: functional
T2 sequence (P9WHJ3 whole entry): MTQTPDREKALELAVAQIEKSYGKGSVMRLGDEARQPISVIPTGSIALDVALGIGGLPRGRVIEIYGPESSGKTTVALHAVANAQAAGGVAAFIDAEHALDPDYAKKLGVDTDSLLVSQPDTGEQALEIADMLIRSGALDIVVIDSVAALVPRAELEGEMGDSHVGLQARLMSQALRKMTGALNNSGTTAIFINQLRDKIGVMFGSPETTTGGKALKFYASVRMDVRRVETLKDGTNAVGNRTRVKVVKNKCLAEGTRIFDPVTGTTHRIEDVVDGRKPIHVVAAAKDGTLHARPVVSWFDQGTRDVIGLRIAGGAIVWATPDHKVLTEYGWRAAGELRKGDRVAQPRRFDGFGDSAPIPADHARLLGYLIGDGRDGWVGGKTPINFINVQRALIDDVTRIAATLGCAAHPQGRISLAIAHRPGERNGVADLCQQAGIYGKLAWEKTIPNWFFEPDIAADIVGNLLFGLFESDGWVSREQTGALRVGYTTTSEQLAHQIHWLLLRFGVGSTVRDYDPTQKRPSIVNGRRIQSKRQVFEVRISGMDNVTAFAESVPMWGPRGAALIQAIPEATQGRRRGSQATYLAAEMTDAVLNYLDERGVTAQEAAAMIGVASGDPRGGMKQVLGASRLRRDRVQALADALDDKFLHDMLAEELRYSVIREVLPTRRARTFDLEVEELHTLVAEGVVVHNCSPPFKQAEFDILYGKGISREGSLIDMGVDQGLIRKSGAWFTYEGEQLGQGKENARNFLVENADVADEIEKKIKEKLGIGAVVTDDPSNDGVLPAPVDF

[2] = biological target: T3, Replicative DNA helicase DnaB (Mycobacterium tuberculosis, UniProt P9WMR3); experiment: DnaB intein splicing inhibitors, dose response, biochemical, cell-free fluorescence (AID 449749); assay type: functional
T3 sequence (P9WMR3 whole entry): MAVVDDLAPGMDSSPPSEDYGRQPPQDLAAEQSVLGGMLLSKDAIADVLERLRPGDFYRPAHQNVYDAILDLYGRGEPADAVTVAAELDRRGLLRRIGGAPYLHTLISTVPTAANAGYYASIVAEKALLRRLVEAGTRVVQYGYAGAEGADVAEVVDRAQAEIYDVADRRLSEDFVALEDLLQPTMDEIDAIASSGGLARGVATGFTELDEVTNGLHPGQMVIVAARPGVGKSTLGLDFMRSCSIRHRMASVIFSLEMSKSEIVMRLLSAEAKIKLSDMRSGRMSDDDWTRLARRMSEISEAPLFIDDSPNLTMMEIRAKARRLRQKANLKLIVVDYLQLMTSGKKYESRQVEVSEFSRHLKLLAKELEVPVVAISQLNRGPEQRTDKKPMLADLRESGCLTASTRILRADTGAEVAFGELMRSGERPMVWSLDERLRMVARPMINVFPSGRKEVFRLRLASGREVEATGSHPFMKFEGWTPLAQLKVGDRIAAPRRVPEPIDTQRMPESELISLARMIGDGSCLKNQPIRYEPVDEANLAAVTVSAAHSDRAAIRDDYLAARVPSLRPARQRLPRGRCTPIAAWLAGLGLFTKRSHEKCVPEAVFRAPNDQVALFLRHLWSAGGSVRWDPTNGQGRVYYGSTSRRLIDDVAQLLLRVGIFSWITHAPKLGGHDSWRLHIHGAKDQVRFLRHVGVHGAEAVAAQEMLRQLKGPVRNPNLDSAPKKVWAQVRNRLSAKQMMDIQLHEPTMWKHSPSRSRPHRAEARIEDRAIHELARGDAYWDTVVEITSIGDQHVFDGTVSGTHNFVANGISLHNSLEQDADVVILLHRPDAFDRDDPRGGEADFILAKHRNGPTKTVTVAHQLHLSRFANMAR

Cytochrome P450 2D6 = Cytochrome P450 2D6 (Homo sapiens, UniProt P10635);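 further: CYP2D6 member of a cytochrome P450 panel assay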
Chain of Cytochrome P450 2D6 (P10635 whole entry): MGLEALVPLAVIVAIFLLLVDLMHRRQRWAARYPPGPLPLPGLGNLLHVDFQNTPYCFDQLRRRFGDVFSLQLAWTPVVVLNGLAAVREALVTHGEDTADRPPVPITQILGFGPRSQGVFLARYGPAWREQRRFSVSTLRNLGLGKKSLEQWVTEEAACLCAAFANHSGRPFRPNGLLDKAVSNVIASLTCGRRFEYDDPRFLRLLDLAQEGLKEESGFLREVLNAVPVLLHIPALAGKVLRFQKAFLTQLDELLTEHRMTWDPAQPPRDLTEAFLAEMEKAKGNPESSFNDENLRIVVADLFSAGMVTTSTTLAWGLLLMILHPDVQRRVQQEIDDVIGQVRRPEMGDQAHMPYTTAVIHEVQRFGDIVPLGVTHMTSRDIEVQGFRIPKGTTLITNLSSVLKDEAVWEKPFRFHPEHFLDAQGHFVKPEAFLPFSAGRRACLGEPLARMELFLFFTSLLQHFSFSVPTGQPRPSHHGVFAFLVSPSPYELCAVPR

Cytochrome P450 3A4 = Cytochrome P450 3A4 (Homo sapiens, UniProt P08684);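 further: CYP3A4 tested as one member of a cytochrome P450 panel screen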
Chain of Cytochrome P450 3A4 (P08684 whole entry): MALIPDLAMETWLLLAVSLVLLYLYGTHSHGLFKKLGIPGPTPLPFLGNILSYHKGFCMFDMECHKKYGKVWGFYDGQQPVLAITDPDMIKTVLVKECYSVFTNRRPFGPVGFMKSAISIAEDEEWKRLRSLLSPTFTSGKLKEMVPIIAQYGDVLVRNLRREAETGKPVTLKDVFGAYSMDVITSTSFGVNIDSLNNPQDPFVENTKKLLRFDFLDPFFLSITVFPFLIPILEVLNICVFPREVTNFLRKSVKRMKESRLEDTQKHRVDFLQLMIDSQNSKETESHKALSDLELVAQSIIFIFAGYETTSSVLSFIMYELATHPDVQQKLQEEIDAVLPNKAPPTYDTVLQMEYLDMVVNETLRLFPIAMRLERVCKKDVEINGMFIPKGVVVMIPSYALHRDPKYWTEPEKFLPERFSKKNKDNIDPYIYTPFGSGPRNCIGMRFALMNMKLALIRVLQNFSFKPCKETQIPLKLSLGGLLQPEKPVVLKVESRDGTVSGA

Cytochrome P450 2C9 = Cytochrome P450 2C9 (Homo sapiens, UniProt P11712)
Chain of Cytochrome P450 2C9 (P11712 whole entry): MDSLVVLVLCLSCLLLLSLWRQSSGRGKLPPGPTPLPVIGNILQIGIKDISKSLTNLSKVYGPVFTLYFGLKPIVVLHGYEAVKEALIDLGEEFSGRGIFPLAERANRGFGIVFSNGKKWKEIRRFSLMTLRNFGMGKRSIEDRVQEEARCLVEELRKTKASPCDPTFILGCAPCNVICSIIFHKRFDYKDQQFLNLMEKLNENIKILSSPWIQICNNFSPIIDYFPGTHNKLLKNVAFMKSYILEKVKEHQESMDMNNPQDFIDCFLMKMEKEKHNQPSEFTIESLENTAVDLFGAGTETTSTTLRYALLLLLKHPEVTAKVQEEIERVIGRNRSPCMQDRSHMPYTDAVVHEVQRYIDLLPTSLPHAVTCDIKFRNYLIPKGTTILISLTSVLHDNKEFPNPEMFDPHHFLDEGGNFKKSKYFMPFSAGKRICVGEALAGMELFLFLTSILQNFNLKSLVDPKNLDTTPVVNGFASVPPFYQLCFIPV

[3] = Trypanosoma cruzi growth suppression in host cells – NIH3T3 host cells, beta-gal luminescence, confirmation (AID 2044); assay type: functional, cell-based;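 further: intracellular parasites grown in NIH/3T3 mouse fibroblasts as host cells; luminescent beta-galactosidase reporter signal from transgenic T. cruzi replicating inside host cells; inhibitors lower the luminescence signal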
[4] = NIH3T3 cell viability loss – ATP luminescence, mouse fibroblasts, counter-screen, dose response (AID 2010); assay type: functional, cell-based;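 further: cells exposed to compound for about 90 hours before reading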
[5] = Luminescence Cell-Based Dose Response HTS to Identify Inhibitors of 5'UTR Stem-Loop Driven Prion Protein mRNA Translation in H4 Neuroglioblastoma Cells. [Related pubchem assays: 1827 (Project Summary), 1813 (Primary HTS)]; assay type: functional
[6] = alpha-synuclein stem-loop luciferase translation blockers – H4 neuroglioma cells, luminescence, confirmation (AID 1988); assay type: functional, cell-based
INS1 = experiment: INS-1E survival protection against cytokine death – cell-based, luminescence, retest, dose response (AID 449756); assay type: functional; conditions: Rattus norvegicus;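 further: cell death triggered by IL-1 beta plus TNF-alpha plus IFN-gamma mixture; protective hits raise ATP signal compared with cytokine alone wells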
Cytochrome P450 2C19 = Cytochrome P450 2C19 (Homo sapiens, UniProt P33261); experiment: Cytochrome panel assay with activity outcomes. Panel member name: p450-cyp2c19 Compounds with AC50 equal or less than 10 uM are considered active; assay type: functional; conditions: read-out: AC50
Chain of Cytochrome P450 2C19 (P33261 whole entry): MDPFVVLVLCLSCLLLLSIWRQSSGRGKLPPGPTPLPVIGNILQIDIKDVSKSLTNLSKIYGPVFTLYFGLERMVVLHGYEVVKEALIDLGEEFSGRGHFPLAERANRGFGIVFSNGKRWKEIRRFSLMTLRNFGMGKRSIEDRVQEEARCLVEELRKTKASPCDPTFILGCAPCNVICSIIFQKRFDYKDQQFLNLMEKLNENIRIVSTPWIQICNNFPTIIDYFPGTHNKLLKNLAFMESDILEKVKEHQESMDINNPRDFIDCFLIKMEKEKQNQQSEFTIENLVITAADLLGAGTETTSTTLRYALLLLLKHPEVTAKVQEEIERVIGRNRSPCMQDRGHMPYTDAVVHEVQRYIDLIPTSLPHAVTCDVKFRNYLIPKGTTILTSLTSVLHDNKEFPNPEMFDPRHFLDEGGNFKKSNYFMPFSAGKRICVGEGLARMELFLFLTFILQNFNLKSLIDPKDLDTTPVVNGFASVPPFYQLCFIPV

[7] = biological target: T1, Heat shock factor protein 1; experiment: decrease of HSF1-responsive luciferase luminescence – cell-based, NIH3T3, dose retest, confirmation (AID 2382); assay type: functional;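 further: NIH3T3 fibroblasts with HSF1-driven luciferase reporter stressed by proteasome inhibitor MG132; luminescence from HSF1-driven luciferase expression after 8 hours of MG132 stress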

CCOC(=O)c1cnc2ccc(C)cc2c1Sc1ccc(F)cc1
EC50 [1]: 11.2 µM (active)
EC50 (Protein RecA): 2.95 µM (active)
AC50 [2]: 5.76 µM (active)

CN1CCN(C(=O)/C(=C/c2cccnc2)NC(=O)c2cccc(Br)c2)CC1
EC50 [1]: > 260 µM (inactive)

COc1ccc(C(=O)N2CCC3(CCCN(Cc4ccccc4OC)C3)CC2)cc1
AC50 (Cytochrome P450 2D6): 12.6 µM (inconclusive)
AC50 (Cytochrome P450 3A4): 15.8 µM (inconclusive)

Nc1nnc(CSCc2ccccc2Cl)s1
EC50 [1]: > 260 µM (inactive)

O=C(NC1CCCC1)C(c1ccc(F)cc1)N(Cc1ccc(F)cc1)C(=O)c1cc[nH]n1 (configuration not stated)
AC50 (Cytochrome P450 2D6): 25.1 µM (inconclusive)
AC50 (Cytochrome P450 2C9): 39.8 µM (inconclusive)

CCN(CC)S(=O)(=O)c1ccc2oc(C(=O)NC3CCCc4ccccc43)c(C)c2c1 (configuration not stated)
EC50 [3]: 2.1 µM (active)
EC50 [4]: > 60 µM (not active)

CC1CC(C)CN(C(=O)CCS(=O)(=O)c2ccc3c(c2)NC(=O)CS3)C1 (configuration not stated)
EC50 [1]: > 260 µM (inactive)

Cc1nnc2nc(SCC(=O)NCC3CCCO3)n(-c3ccc(Br)cc3)c(N)c1-2 (configuration not stated)
AC50 (Cytochrome P450 2D6): 10 µM (inconclusive)
AC50 (Cytochrome P450 2C9): 14.1 µM (inconclusive)

O=C(Nc1ccccc1)N1CCCN(c2ccc(C(F)(F)F)cc2[N+](=O)[O-])CC1
EC50 [1]: > 260 µM (inactive)

Cc1ccc(S(=O)(=O)c2cc(C#N)c(O)nc2N)cc1
AC50 (Cytochrome P450 2D6): 39.8 µM (inconclusive)
AC50 (Cytochrome P450 3A4): 25.1 µM (inconclusive)

CCc1cc2c3c(c1)C1(C(=O)N3C(C)(C)C=C2C)C(C#N)=C(N)Oc2nc(O)nc(O)c21 (configuration not stated)
EC50 (Protein RecA): 2.65 µM (active)
AC50 [2]: 11 µM (active)

CS(=O)(=O)C1=NN2C(=N)/C(=C\c3ccc(OC(=O)c4ccco4)cc3)C(=O)N=C2S1
EC50 (Protein RecA): 16.8 µM (active)
AC50 [2]: > 380 µM (inactive)

COc1ccc(C(=O)ON=C(N)c2ccccc2)c(OC)c1
EC50 [5]: > 120 µM (not active)
EC50 [6]: 5.93 µM (active)

Cc1ccccc1OCCNC(=O)c1ccccc1Sc1ccccc1C#N
AC50 (Cytochrome P450 2D6): 25.1 µM (inconclusive)
AC50 (Cytochrome P450 2C9): 28.2 µM (inconclusive)

Cn1cc(C=O)c(-c2ccc3c(c2)OCCCO3)n1
EC50 [1]: > 260 µM (inactive)

Cc1cccc(C(C)C)c1NC(=O)COC(=O)c1cccc(S(=O)(=O)N2CCc3ccccc3C2)c1
EC50 [1]: > 260 µM (inactive)

Cc1ccc(N2C(=O)C(Cl)=C(NCc3ccccc3)C2=O)c(C)c1
AC50 (Cytochrome P450 2D6): 22.4 µM (inconclusive)

CC(C)(CC(=O)N1CCN(c2ccc(Cl)cc2)CC1)CC1=NS(=O)(=O)c2ccccc2N1
AC50 (Cytochrome P450 2D6): 3.16 µM (inconclusive)

CCOc1ccc(NC(=S)N(Cc2ccc(Cl)cc2)Cc2ccco2)cc1
EC50 [1]: > 260 µM (inactive)

CCCCCC1=C2CNC(CCC)(C(=O)OC)C=C2C(C)C1=O (configuration not stated)
AC50 (Cytochrome P450 2D6): 12.6 µM (inconclusive)

O=C(NCc1cccnc1)c1cc(-c2ccco2)on1
AC50 (INS1): 1.62 µM (active)

CSc1c(-c2ccccc2)nc2ccccc2c1C(=O)O
AC50 (Cytochrome P450 2D6): 3.16 µM (inconclusive)
AC50 (Cytochrome P450 2C19): 10 µM (inconclusive)

CC(C)CCN(C(=O)CNC(=O)c1cccs1)C(C(=O)NC1CCCCC1)c1cccnc1 (configuration not stated)
EC50 [7]: > 195 µM (not active)

CCOc1cc(C2C(C#N)=C(N)Oc3[nH]nc(C)c32)ccc1OCCN1CCOCC1 (configuration not stated)
EC50 (Protein RecA): 4.45 µM (active)
AC50 [2]: 50.6 µM (active)

O=C1NC(=S)S/C1=C\c1nc2ccccc2[nH]1
EC50 (Protein RecA): > 120 µM (inactive)
AC50 [2]: > 380 µM (inactive)

CNC(=O)c1[nH]cnc1C(=O)Nc1ccccc1C
EC50 [7]: > 195 µM (not active)

CCN1C(=O)CC(N2CCN(c3ccc(C(=O)c4ccccc4)cc3)CC2)C1=O (configuration not stated)
EC50 [1]: > 260 µM (inactive)

O=C(NC1CCSc2ccccc21)c1ccccc1Cl (configuration not stated)
EC50 [1]: > 260 µM (inactive)

FC(F)(F)c1ccccc1-c1cc(NCc2cccnc2)ncn1
AC50 (Cytochrome P450 2D6): 25.1 µM (inconclusive)

CN(C)CCCn1c(N)c(C#N)c2nc(C#N)c(C#N)nc21
EC50 [1]: 58.3 µM (active)

COCCNc1nc(-c2ccccc2OC)nc2ccccc12
AC50 (Cytochrome P450 2D6): 25.1 µM (inconclusive)
AC50 (Cytochrome P450 3A4): 20 µM (inconclusive)

COc1ccc(S(=O)(=O)N2CCCC2)cc1C(C)C
EC50 [7]: > 195 µM (not active)

O=C(CCNc1ccc(F)cc1)c1cc2ccccc2o1
EC50 [3]: 1.12 µM (active)
EC50 [4]: > 60 µM (not active)

CCc1ccc(-c2cc(C(F)(F)F)n3nc(C(=O)Nc4cnn(Cc5ccc(C)cc5)c4)cc3n2)s1
AC50 (INS1): 3.63 µM (active)

c1ccc2c(c1)ncn2-c1ncnc2sc3c(c12)CCCC3
AC50 (Cytochrome P450 2D6): 0.00501 µM (inconclusive)
AC50 (Cytochrome P450 3A4): 14.1 µM (inconclusive)
AC50 (Cytochrome P450 2C9): 20 µM (inconclusive)

CCOC(=O)c1c(N=C(S)N2CCOCC2)sc2c1CCN(C(=O)OCC)C2
EC50 (Protein RecA): 20.1 µM (active)
AC50 [2]: 5.25 µM (active)

COc1cccc(N/C([S-])=C(/C(=O)c2ccc(C)c([N+](=O)[O-])c2)[n+]2ccccc2)c1
EC50 (Protein RecA): 9.74 µM (active)
AC50 [2]: 13.3 µM (active)

NCCCc1ccc2oc3ccccc3c2c1
AC50 (Cytochrome P450 2D6): 2.51 µM (inconclusive)
AC50 (Cytochrome P450 2C19): 7.94 µM (inconclusive)

COc1ccccc1NC(=O)CN1CCN(CC(=O)Nc2ccccc2Cl)CC1
EC50 [1]: > 260 µM (inactive)

C[C@H](CO)N1C[C@H](C)[C@@H](CN(C)C(=O)NC2CCCCC2)Oc2c(NC(=O)Nc3ccc(C(F)(F)F)cc3)cccc2C1=O
AC50 (INS1): 27.7 µM (active)

Oc1ccc(/C(Cc2ccc3ccccc3n2)=N\Nc2ccccc2)c(O)c1
EC50 (Protein RecA): 13.6 µM (active)
AC50 [2]: 78.3 µM (active)

O=C(N/N=C/c1ccc(-c2cccc([N+](=O)[O-])c2)o1)c1cccs1
EC50 [3]: 0.634 µM (active)
EC50 [4]: > 60 µM (not active)

CC1Cc2ccccc2N1C(=O)CO/N=C/c1ccc(OC(F)F)cc1 (configuration not stated)
EC50 [7]: > 195 µM (not active)

O=C(N/N=C/c1cccnc1)c1ccccc1NS(=O)(=O)c1cccs1
AC50 (INS1): > 260 µM (inactive)
